Reference: patent US6710074B2, “Compound having antimalarial activity” (Japan Science and Technology Corporation, priority 2000, dated 2004)
Where two headings read alike, the source gives them in different places.

Legend:
mouse FM3A cells = experiment: Growth inhibition test of mouse FM3A cells; format: cell-based; conditions: for IC50: read-out: 50% growth inhibitory concentration IC50
Protocol: An F28-7 strain, a wild-type strain of mouse breast cancer-derived FM3A cells was used. Immobilized fetal bovine serum was added to an ES medium such that the serum made up 2% of the medium, and culture was conducted in CO2 at a concentration of 5%, and at 37° C. Doubling time of the F28-7 strain of FM3A cells under this condition was about 12 hours. Cells which had been precultured and entered to logarithmic growth phase were diluted to be 5×10^4 cells/ml in the medium. The same sample solution as in the above-mentioned Example 2-2 was used. 5 to 10 μl of the sample solution was added to each well of a 24-well plate (when medium and the like were added, the final concentration became 1×10^−4˜1×10^−5 M). The sample solution was duplicated or triplicated, and wells added with 10 μl of sterilized water, DMF or DMSO were prepared at the same time as controls. Next, a prepared suspension of cultured cells was added by 990 to 995 μl each, and uniformly suspended in media by pipetting gently. After cultured for 48 hours, the number of cells in each well was counted by a cell counter (CC-108; Toa. Medical Electrics), and growth rate was calculated by a formula mentioned below and 50% growth inhibitory rate (IC50) was calculated. The cell proliferation inhibiting activity was calculated according to the number of cells in wells supplemented with the sample solution and in controls. […] on this, cell toxicity of the sample was evaluated. [formula]
A: the number of cells at the beginning
B: the number of cells in a control after 2 days
C: the number of cells 2 days after supplementation of a sample

P. falciparum = experiment: Growth inhibition test of P. falciparum; format: cell-based, Plasmodium falciparum; conditions: for Chemotherapeutic coefficient IC50/EC50: IC50 of mouse FM3A cells / EC50 of P. falciparum, index of selective toxicity; for EC50: Plasmodium falciparum
Protocol: P. Falciparum FCR-3 strain (ATCC30932) and P. Falciparum Honduras-i strain (ATCC30935), both of which are Plasmodium falciparum, were used as test malaria parasites for measuring antimalarial activity. A filter-sterilized RPMI1640 medium was adjusted to be pH 7.4 and added with human serum such that the serum made up 10% of the medium, and used as a test medium. The above-mentioned P. falciparum were cultured in O2at a concentration of 5%, CO2 at a concentration of 5% and N2 at a concentration of 90%, at a temperature of 36.5° C. Hematocrit value (ratio of volume of erythrocytes in erythrocyte suspension) used was adjusted to be 5%. Initial infection rate of P. falciparum at the beginning of culture was adjusted to be 0.1%. A 24-well plate was used for culture and a medium was replaced everyday, and cultures were transferred at infection rate of 4%. A thin-layer smear was constructed and subjected to Giemsa staining which had been originally developed for malarial test, or Diff-Qick staining, and followed by measurement under a microscope (oil immersion, 1000×), and then infection rate of P. falciparum was calculated according to a formula mentioned below. [formula]
Cultured erythrocytes infected with P. falciparum were gathered by centrifugation and washed with a medium containing serum, then noninfected erythrocytes were added, and a culture liquid for P. falciparum at initial infection rate of 0.3% was prepared. Hematocrit value in this case was adjusted to be 3%. The compound according to the present invention used for a test and represented by the formula (II) and […] of positive control drug (quinine, artemisinin, artesunate, mefloquine) were dissolved into sterilized water, N,N-dimethylformamide (DMF) or dimethylsulfoxide (DMSO), and a sample solution at prescribed concentration was prepared. 5 to 10 μl of the sample solution was added to each well of a 24-well plate. The sample solution was duplicated or triplicated. For control, sterilized water, DMF or DMSO was added by 10 μl per well. Next, the above-mentioned culture liquid for P. falciparum prepared to be at initial infection rate of 0.3% was added by 990 to 995 μl each, and uniformly suspended in media by pipetting gently. After cultured for 72 hours in a CO2—O2—N2 (5%, 5%, 90%) incubator, a thin-layer smear was constructed for each well of the culture plate, Giemsa staining or Diff-Qick staining was conducted, followed by measurement under a microscope (oil immersion, 1000×), and then infection rates of P. falciparum in a group supplemented with a test liquid and in controls were calculated. The growth inhibition rate was calculated according to a formula mentioned below based on the infection rate of P. falciparum as calculated above, and 50% growth inhibitory concentration (EC50) was calculated. [formula] […]
a: initial infection rate b: infection rate of a sample solution after 72 hours c: infection rate of a control after 72 hours
Antimalarial activity of a sample was evaluated based on EC50 and IC50 values of the sample of P. falciparum and mouse FM3A cells. Chemotherapeutic coefficient used as an index of selective toxicity against P falciparum was calculated by a formula mentioned below and drug efficacy was assessed. [formula]

[1] = F28-7 strain of mouse breast cancer-derived FM3A cells, cultured for 48 hours, cell count
[2] = Erythrocyte, P. falciparum in human erythrocytes, cultured for 72 hours, infection rate by smear staining, read-out: 50% growth inhibitory concentration EC50

Row | SMILES | IC50 (mouse FM3A cells; [1]) | Chemotherapeutic coefficient IC50/EC50 (P. falciparum) | EC50 (P. falciparum; [2]) | IC50 (mouse FM3A cells; Mus musculus, FM3A, 48 h) | EC50 (P. falciparum; Erythrocyte, 72 h, read-out: 50% growth inhibitory concentration EC50) | growth (mouse FM3A cells; mouse FM3A cells, printed below the IC50 cell 2.4 × 10^−5 M) | selective toxicity against P. falciparum compared with that against mouse FA3A cells (P. falciparum; P. falciparum versus mouse FA3A cells) | EC50 (P. falciparum; read-out: inhibits the growth of drug-resistant P. falciparum at a mol concentration of)
1 | C[C@@H]1CC[C@H]2[C@@H](C)C(=O)O[C@@H]3O[C@@]4(C)CC[C@@H]1[C@]32OO4 [Artemisinin, artemisinin] | 10000 nM | 1,300 | 7.9 nM |  |  |  |  | 
2 | C[C@H]1[C@H](OC(=O)CCC(=O)O)O[C@@H]2O[C@@]3(C)CC[C@H]4[C@H](C)CC[C@@H]1[C@@]24OO3 [Artesunate, artesunate] |  | 180 |  | 3000 nM | 17 nM |  |  | 
3 | COC(=O)C(C)C1CCC(=O)C2CCC3(C)OOC21C(O)O3 (stereo not drawn) [Compound of the present invention, 12-hidroxy-2-(1-methoxycarbonylethyl)-5-oxo-10,11,13-trioxatricyclo[7.2.0.0^1,6]tridecane] | ≥ 24000 nM | >1,000 | 39 nM |  |  | (78% growth) | more than 1,000 times | 39 nM
4 | OC(c1cc(C(F)(F)F)nc2c(C(F)(F)F)cccc12)C1CCCCN1 (stereo not drawn) [Mefloquine, mefloquine] | 2900 nM | 90 | 32 nM |  |  |  |  | 
5 | C=C[C@H]1C[N@@]2CC[C@H]1C[C@H]2[C@H](O)c1ccnc2ccc(OC)cc12 [Quinine, quinine] | 100000 nM | 910 | 110 nM |  |  |  |  | 
